Measured values taken from ChEMBL document CHEMBL1139415, “Highly functionalized 7-azaindoles as selective PPAR gamma modulators” (Bioorg Med Chem Lett, 2008).
Calls of active or inactive are those of the source. The calls are words filed in the database; no cut-off is given here.

Tests used:
[1] = Clearance in Sprague-Dawley rat at 0.5 mg, iv and 2.0 mg, po; format: ADME, organism-based; conditions: in vivo
[2] = biological target: T1, Peroxisome proliferator-activated receptor delta (Homo sapiens, UniProt Q03181); assay: Binding affinity to PPARdelta
T1 sequence (Q03181 whole entry): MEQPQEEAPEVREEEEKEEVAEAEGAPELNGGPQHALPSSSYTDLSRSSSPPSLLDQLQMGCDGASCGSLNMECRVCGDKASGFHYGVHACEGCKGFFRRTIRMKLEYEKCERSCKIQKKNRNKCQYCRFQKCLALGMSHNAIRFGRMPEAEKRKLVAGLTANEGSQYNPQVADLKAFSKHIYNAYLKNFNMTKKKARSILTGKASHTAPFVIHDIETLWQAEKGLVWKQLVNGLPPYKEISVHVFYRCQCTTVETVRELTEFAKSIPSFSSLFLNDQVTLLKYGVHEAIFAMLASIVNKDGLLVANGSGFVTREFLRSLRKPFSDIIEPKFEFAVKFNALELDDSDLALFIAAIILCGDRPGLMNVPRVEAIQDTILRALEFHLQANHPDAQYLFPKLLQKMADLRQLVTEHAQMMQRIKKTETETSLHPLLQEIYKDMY

[3] = biological target: T2, Peroxisome proliferator-activated receptor gamma (Homo sapiens, UniProt P37231); assay: Displacement of [3H]2AD-5075 from GST-tagged human PPARgamma receptor expressed in Escherichia coli BL21
T2 sequence (P37231 whole entry): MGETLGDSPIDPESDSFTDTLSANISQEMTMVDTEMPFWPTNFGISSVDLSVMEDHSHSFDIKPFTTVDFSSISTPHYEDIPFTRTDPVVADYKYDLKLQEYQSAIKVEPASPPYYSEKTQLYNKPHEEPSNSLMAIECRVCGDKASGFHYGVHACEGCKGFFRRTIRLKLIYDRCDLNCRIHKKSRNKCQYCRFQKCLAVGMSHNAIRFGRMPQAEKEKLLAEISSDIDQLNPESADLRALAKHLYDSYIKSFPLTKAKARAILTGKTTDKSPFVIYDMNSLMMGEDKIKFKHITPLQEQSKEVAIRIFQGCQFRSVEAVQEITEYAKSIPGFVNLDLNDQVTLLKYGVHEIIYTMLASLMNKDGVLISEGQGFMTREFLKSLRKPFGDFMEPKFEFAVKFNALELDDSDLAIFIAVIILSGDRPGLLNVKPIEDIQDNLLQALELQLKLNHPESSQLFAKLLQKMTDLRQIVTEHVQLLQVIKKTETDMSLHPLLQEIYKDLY

[4] = biological target: T2, Peroxisome proliferator-activated receptor gamma; assay: Agonist activity at human PPARgamma receptor expressed in african green monkey COS cells after 48 hrs by GAL4 transactivation assay; format: functional, cell-based
Mus musculus [5] = assay: Antiglycemic activity in db/db mouse assessed as glucose correction at 20 mg/kg, po administered daily for 11 days; format: functional
Mus musculus [6] = assay: Antiglycemic activity in db/db mouse assessed as glucose correction at 50 mg/kg, po administered daily for 11 days; format: functional
[7] = Half life in Sprague-Dawley rat at 0.5 mg, iv and 2.0 mg, po; format: ADME, organism-based; conditions: in vivo
[8] = biological target: T3, Peroxisome proliferator-activated receptor alpha (Homo sapiens, UniProt Q07869); assay: (§1) Binding affinity to human PPARalpha
T3 sequence (Q07869 whole entry): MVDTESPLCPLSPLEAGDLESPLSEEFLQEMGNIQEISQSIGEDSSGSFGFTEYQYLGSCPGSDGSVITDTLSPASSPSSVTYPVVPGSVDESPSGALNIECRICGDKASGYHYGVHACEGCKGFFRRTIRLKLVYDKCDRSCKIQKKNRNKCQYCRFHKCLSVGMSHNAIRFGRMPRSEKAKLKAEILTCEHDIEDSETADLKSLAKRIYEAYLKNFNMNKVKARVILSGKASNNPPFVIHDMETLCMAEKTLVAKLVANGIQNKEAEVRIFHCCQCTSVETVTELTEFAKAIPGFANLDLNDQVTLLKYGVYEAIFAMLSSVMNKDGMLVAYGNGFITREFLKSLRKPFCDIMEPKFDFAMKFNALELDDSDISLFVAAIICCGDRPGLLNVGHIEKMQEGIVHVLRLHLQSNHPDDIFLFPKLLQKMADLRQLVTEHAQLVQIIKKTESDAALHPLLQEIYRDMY

[9] = Bioavailability in Sprague-Dawley rat at 0.5 mg, iv and 2.0 mg, po; format: ADME, organism-based; conditions: in vivo
[10] = biological target: T4, Peroxisome proliferator-activated receptor alpha (Mus musculus) (UniProt P23204); assay: Binding affinity to mouse PPARalpha
T4 sequence (whole entry): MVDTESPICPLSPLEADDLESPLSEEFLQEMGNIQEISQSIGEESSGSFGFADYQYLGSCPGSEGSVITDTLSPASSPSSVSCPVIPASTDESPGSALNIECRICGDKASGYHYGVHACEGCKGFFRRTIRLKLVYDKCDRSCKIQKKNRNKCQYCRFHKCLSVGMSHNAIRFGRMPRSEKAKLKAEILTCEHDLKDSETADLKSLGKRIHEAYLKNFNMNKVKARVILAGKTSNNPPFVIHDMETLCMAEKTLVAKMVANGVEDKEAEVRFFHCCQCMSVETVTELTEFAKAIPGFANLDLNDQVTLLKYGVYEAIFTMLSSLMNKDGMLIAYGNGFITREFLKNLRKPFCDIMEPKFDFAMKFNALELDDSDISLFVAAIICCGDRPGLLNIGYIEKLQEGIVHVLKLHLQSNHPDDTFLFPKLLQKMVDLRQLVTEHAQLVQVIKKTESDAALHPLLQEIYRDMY

[11] = biological target: Peroxisome proliferator-activated receptor alpha (Homo sapiens) (UniProt Q07869); assay: as §1
[12] = biological target: Thromboxane A2 receptor (Homo sapiens) (UniProt P21731); assay: Inhibition of TXA2 receptor at 10 uM
Mus musculus [13] = assay: Antiglycemic activity in db/db mouse assessed as glucose correction at 30 mg/kg, po administered daily for 11 days; format: functional
Mus musculus [14] = assay: Antiglycemic activity in db/db mouse assessed as glucose correction at 10 mg/kg, po administered daily for 11 days; format: functional
Cytochrome P450 2C9 = Cytochrome P450 2C9 (Homo sapiens, UniProt P11712); assay: Inhibition of CYP2C9; format: ADME
Cytochrome P450 3A4 = Cytochrome P450 3A4 (Homo sapiens, UniProt P08684); assay: Inhibition of CYP3A4; format: ADME
Chain of Cytochrome P450 3A4 (P08684 whole entry): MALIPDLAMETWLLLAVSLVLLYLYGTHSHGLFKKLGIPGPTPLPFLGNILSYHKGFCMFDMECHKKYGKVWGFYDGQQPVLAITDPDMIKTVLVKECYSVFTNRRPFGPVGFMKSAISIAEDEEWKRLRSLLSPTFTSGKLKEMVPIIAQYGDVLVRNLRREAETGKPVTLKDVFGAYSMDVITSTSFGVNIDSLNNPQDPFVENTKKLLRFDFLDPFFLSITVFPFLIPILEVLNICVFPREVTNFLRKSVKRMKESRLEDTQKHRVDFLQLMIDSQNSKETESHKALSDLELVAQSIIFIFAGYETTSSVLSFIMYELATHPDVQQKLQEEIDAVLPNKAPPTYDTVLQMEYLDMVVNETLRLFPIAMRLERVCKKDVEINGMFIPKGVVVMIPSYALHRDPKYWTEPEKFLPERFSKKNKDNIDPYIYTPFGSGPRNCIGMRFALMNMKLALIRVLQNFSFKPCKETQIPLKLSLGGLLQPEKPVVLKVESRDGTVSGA

Chain of Cytochrome P450 2C9 (P11712 whole entry): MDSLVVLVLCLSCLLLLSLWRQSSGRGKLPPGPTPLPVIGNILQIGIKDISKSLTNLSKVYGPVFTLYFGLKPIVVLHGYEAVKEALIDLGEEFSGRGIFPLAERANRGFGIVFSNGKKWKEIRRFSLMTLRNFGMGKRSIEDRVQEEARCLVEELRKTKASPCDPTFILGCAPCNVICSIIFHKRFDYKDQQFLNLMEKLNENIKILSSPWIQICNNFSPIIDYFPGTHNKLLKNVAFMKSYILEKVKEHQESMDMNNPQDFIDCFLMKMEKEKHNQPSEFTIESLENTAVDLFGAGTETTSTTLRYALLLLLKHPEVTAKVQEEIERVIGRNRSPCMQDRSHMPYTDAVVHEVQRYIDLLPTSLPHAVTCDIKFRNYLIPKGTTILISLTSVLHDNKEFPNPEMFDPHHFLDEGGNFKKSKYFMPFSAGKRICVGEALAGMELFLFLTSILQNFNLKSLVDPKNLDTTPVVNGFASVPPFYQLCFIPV
Chain of Thromboxane A2 receptor (Homo sapiens) (P21731 whole entry): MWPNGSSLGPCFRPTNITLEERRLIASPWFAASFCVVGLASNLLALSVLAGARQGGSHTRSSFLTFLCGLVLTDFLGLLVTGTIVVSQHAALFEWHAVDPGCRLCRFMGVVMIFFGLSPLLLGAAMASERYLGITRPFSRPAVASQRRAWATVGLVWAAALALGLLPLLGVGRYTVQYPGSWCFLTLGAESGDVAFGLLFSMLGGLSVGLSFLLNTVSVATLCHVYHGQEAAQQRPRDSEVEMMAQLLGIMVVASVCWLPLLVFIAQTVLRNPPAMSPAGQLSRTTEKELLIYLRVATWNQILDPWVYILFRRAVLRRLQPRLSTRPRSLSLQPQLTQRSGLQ

Row | SMILES | clearance [1] | IC50 [2] | IC50 [3] | EC50 [4] | Activity (Mus musculus [5]) | Activity (Mus musculus [6]) | half-life [7] | IC50 [8] | bioavailability [9] | Activity [10] | Activity [11] | inhibition [12] | Activity (Mus musculus [13]) | Activity (Mus musculus [14]) | %max [10] | IC50 (Cytochrome P450 2C9) | IC50 (Cytochrome P450 3A4)
1 | Cc1c(Oc2ccc(Cl)cc2)c2ccc(C(F)(F)F)nc2n1Cc1ccc(Cl)c(O[C@@H](C)C(=O)O)c1 | 12.4 mL/min/kg | > 50000 nM | 22 nM | 23 nM | 18% | 56% | 1.9 h | > 50000 nM | 61% | – | – | – | – | – | – | – | –
2 | COc1ccc(C(=O)c2c(C)n(Cc3cccc(O[C@H](C)C(=O)O)c3)c3ncccc23)cc1 | – | > 50000 nM | 726 nM | 2930 nM | – | – | – | – | – | Active | Active | – | – | – | – | – | –
3 | COc1ccc(C(=O)c2c(C)n(Cc3cc(O[C@@H](C)C(=O)O)ccc3F)c3ncccc23)cc1 | 31.7 mL/min/kg | > 50000 nM | 5 nM | 3 nM | 44% | – | 1.8 h | > 50000 nM | 51% | – | – | 64% | – | – | – | – | –
4 | Cc1c(Oc2ccc(Cl)cc2)c2ccc(F)nc2n1Cc1ccc(Cl)c(O[C@@H](C)C(=O)O)c1 | 23 mL/min/kg | > 50000 nM | 3 nM | 4 nM | – | – | 0.8 h | > 50000 nM | 47% | – | – | – | 30% | – | – | – | –
5 | COc1ccc(C(=O)c2c(C)n(Cc3ccc(F)c(O[C@@H](C)C(=O)O)c3)c3ncccc23)cc1 | – | > 50000 nM | 10 nM | 3 nM | – | – | – | > 50000 nM | – | – | – | – | – | – | – | – | –
6 | COc1ccc(C(=O)c2c(C)n(Cc3cc(O[C@@H](C)C(=O)O)ccc3F)c3nc(C)ccc23)cc1 | 32 mL/min/kg | – | 4 nM | 2 nM | – | – | 1.9 h | – | 105% | 500 nM | – | – | – | 63% | 28% | – | –
7 | Cc1c(Oc2ccc(Cl)cc2)c2cccnc2n1Cc1cc(O[C@@H](C)C(=O)O)ccc1F | 22.1 mL/min/kg | > 50000 nM | 54 nM | 156 nM | – | – | 1.6 h | > 50000 nM | 77% | – | – | – | – | – | – | – | –
8 | Cc1c(C(=O)c2ccc(Cl)cc2)c2ccc(OC(F)(F)F)cc2n1Cc1cccc(O[C@@H](C)C(=O)O)c1 | 21.7 mL/min/kg | – | 1 nM | 1 nM | – | – | 1.5 h | – | 45% | – | – | – | – | – | – | 5600 nM | –
9 | COc1ccc(C(=O)c2c(C)n(Cc3cc(O[C@@H](C)C(=O)O)ccc3Cl)c3nc(OC)ccc23)cc1 | – | > 50000 nM | 2 nM | 2 nM | – | – | – | > 50000 nM | – | – | – | – | 32% | – | – | – | –
10 | CN(CCOc1ccc(CC2SC(=O)NC2=O)cc1)c1ccccn1 (stereo unspecified) [ROSIGLITAZONE] | – | – | – | – | – | – | – | – | – | – | – | – | – | 90% | – | – | –
11 | Cc1c(Oc2ccc(Cl)cc2)c2cccnc2n1Cc1ccc(F)c(O[C@@H](C)C(=O)O)c1 | – | > 50000 nM | 106 nM | 140 nM | – | – | – | > 50000 nM | – | – | – | – | – | – | – | – | –
12 | COc1ccc(C(=O)c2c(C)n(Cc3cccc(O[C@@H](C)C(=O)O)c3)c3ncccc23)cc1 | 115 mL/min/kg | > 50000 nM | 66 nM | 27 nM | – | – | 2 h | > 50000 nM | 29% | – | – | – | – | 29% | – | – | > 100000 nM
13 | COc1ccc(C(=O)c2c(C)n(Cc3cccc(O[C@@H](C)C(=O)O)c3)c3nc(C)ccc23)cc1 | 28 mL/min/kg | > 50000 nM | 16 nM | 9 nM | – | – | 2.4 h | > 50000 nM | 80% | – | – | – | – | 42% | – | – | –
14 | COc1ccc(C(=O)c2c(C)n(Cc3ccc(F)c(O[C@@H](C)C(=O)O)c3)c3nc(OC)ccc23)cc1 | – | – | 1 nM | 1 nM | – | – | – | – | – | 222 nM | 489 nM | – | – | 23% | – | – | –
15 | COc1ccc(C(=O)c2c(C)n(Cc3cc(O[C@@H](C)C(=O)O)ccc3F)c3nc(OC)ccc23)cc1 | 7.4 mL/min/kg | > 50000 nM | 2 nM | 1 nM | – | 34% | 1.4 h | > 50000 nM | 37% | – | – | – | 35% | 33% | – | – | –
16 | Cc1c(Oc2ccc(Cl)cc2)c2cccnc2n1Cc1cc(O[C@@H](C)C(=O)O)ccc1Cl | 21.8 mL/min/kg | > 50000 nM | 25 nM | 36 nM | – | – | 1.2 h | > 50000 nM | 61% | – | – | – | – | – | – | – | –
17 | COc1ccc(C(=O)c2c(C)n(Cc3ccc(Cl)c(O[C@@H](C)C(=O)O)c3)c3nc(OC)ccc23)cc1 | – | > 50000 nM | < 1 nM | 1 nM | – | – | – | > 50000 nM | – | – | – | – | – | – | – | – | –
18 | Cc1c(Oc2ccc(Cl)cc2)c2ccc(F)nc2n1Cc1cc(O[C@@H](C)C(=O)O)ccc1Cl | – | > 50000 nM | 15 nM | 4 nM | – | – | – | > 50000 nM | – | – | – | – | – | – | – | – | –
19 | Cc1c(Oc2ccc(Cl)cc2)c2ccc(Cl)nc2n1Cc1ccc(Cl)c(O[C@@H](C)C(=O)O)c1 | 27 mL/min/kg | > 50000 nM | 3 nM | 4 nM | – | – | 1.2 h | > 50000 nM | 56% | – | – | – | 44% | 32% | – | – | –
20 | Cc1c(Oc2ccc(Cl)cc2)c2ccc(F)nc2n1Cc1ccc(F)c(O[C@@H](C)C(=O)O)c1 | – | > 50000 nM | 23 nM | 94 nM | – | – | – | > 50000 nM | – | – | – | – | – | – | – | – | –
